Test results published in paper PMC9873984, “Membrane cholesterol regulates inhibition and substrate transport by the glycine transporter, GlyT2” (Life Science Alliance, 2023).

How the values were obtained:
WT GlyT2 [1] = target: T1, WT GlyT2 (Homo sapiens, UniProt Q9Y345); assay: Inhibitor concentration–responses on glycine transport currents, two-electrode voltage clamp (control and MβCD-treated oocytes); type: cell-based; parameters: expressed in transfected cells; host or cells: Xenopus laevis oocytes injected with in vitro transcribed RNA (pOTV vector); details: for Reduction of potency after cholesterol depletion: MβCD-treated vs control oocytes
T1 sequence (Q9Y345 1-797): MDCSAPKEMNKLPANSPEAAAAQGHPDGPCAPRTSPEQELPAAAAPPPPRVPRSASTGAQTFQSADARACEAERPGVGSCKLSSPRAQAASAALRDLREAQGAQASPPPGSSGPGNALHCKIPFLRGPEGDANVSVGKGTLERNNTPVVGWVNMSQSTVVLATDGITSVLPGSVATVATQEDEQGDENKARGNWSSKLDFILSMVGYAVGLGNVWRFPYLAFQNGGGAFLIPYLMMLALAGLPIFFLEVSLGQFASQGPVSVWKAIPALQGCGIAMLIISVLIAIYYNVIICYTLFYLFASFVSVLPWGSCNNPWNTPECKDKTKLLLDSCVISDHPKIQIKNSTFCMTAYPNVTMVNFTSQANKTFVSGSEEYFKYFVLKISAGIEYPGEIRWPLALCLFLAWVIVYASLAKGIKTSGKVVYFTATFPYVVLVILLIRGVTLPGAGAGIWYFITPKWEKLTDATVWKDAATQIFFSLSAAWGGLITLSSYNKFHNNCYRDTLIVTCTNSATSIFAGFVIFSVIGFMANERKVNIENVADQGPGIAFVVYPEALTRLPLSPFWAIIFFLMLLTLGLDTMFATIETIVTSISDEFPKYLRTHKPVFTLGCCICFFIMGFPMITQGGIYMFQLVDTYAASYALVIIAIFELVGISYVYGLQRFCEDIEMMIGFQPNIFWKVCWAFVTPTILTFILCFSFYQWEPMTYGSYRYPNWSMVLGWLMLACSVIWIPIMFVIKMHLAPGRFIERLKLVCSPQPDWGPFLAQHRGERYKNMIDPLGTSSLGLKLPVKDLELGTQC
Experimental: (§1) Individual oocytes were incubated at 32°C for 30 min in 15 mM MβCD or γCD, suspended in frog Ringer’s solution.
Because of the slowly reversible nature of the compounds tested, inhibitor concentration–responses were performed cumulatively. An EC50 concentration of glycine was applied until a stable transport current was reached. EC50 concentrations of glycine were used to produce reliable currents for each transporter, and as the inhibitors are non-competitive, application of varying glycine concentrations is unlikely to affect their activity. Increasing concentrations of inhibitors were co-applied with glycine with each concentration producing a distinct plateau before the subsequent concentration was applied. Inhibitor concentration–responses were limited to a maximum concentration of 3 µM to mitigate the risk of changes to the free drug concentration because of micelle formation. Currents after the plateau of each inhibitor concentration were normalized to the current produced by application of glycine alone and fit using the method of least squares: Y=Bottom+(Top−Bottom)/(1+10^[X−LogIC50]), where X is log [inhibitor], Y is current normalized to glycine in the absence of inhibitor, and Top and Bottom are the maximal and minimal plateaus, respectively. The method of least squares was constrained to have the bottom value >0 and the hill slope as −1, enabling the calculation of IC50 values and the extent of inhibition produced by the maximal concentration applied.
IC50 values are presented as the mean and 95% confidence interval, whereas inhibition values are presented as the mean ± SEM. Data sets are n ≥ 5 from two batches of oocytes.
As the inhibitors assayed here are slowly reversible, inhibitor concentration–responses were unable to be performed on the same cell after treatment with MβCD. Thus, GlyT2 expression was tested by applying a maximal glycine concentration (300 µM) before treatment with MβCD to deplete membrane cholesterol. After MβCD treatment, oocytes were returned to the electrophysiology set-up and washed for 10 min in recording buffer to remove cyclodextrins. […] After successful depletion, inhibitor concentration–responses were performed as described above (see “Inhibitor concentration–response—mutagenesis” in the Materials and Methods section).

WT GlyT2 [2] = target: T1, WT GlyT2; assay: Inhibitor washout time course (reversibility), control and MβCD-treated oocytes; type: cell-based; parameters: expressed in transfected cells; host or cells: Xenopus laevis oocytes injected with in vitro transcribed RNA (pOTV vector)
Experimental: as §1
Reversibility of GlyT2 inhibitors was determined by applying an EC50 concentration of glycine followed by co-application of the inhibitor at an IC50 concentration once a stable current had been achieved. Inhibitors were applied for 4 min as this was sufficient time to produce substantial inhibition for each compound and allowed for their direct comparison. At the conclusion of 4 min (time 0), ND96 buffer was perfused through the recording chamber to wash the oocyte. […] Transport currents were normalized to glycine currents in the absence of inhibitor and converted to % recovery values via Y=It−It=0/Imax−It=0, where Y is % recovery, I is current in nA, Imax is the maximal current produced by the glycine EC50, and t is time in minutes. Washout kinetics were then determined by fitting % recovery values to the first-order rate equation: Y=(Y0−Plateau).e^(−Kt)+Plateau, where Y is the % recovery, Y0 is the point, which crosses the Y-axis (constrained to 0) and increases to the plateau (constrained to between 0 and 100), K is the rate constant (1/t), and t is time in minutes. […] Because of the slowly […] nature of the inhibitors, washout time courses involving cyclodextrin treatment could not be performed on the same cell. […] As these experiments could not occur on the same cell, differences in half-life and maximal recovery were analysed via an unpaired two-tailed t test.

[3] = MβCD-treated oocytes (15 mM, 30 min, 32 °C), 3 µM
[4] = MβCD-treated oocytes (15 mM, 30 min, 32 °C; cholesterol depleted)
[5] = WT GlyT2 in Xenopus laevis oocytes, 3 μM, Table S10
[6] = WT GlyT2 in Xenopus laevis oocytes, glycine EC50 co-applied, Table S10
[7] = MβCD-treated oocytes (15 mM, 30 min, 32°C)
[8] = WT, washout after 4 min IC50 concentration of inhibitor, Table S11

Row | SMILES | Inhibition at 3 μM (WT GlyT2 [1]; [3]) | IC50 (WT GlyT2 [1]; [4]) | Reduction of potency after cholesterol depletion (WT GlyT2 [1]) | Inhibition at 3 μM (WT GlyT2 [1]; [5]) | IC50 (WT GlyT2 [1]; [6]) | Half-life (transport current recovery) (WT GlyT2 [2]; Control oocytes, Table S8) | Recovery at 30 min (WT GlyT2 [2]; Control oocytes, Table S8) | Half-life (transport current recovery) (WT GlyT2 [2]; [7]) | Recovery at 30 min (WT GlyT2 [2]; [7]) | Half-life (transport current recovery) (WT GlyT2 [2]; [8]) | Recovery at 30 Min (WT GlyT2 [2]; [8]) | Half-life (transport current recovery) (WT GlyT2 [2]; MβCD-treated oocytes (15 mM, 30 min, 32°C), listed as OLLeu) | Inhibition at 1 µM (column head 3 μM, footnote b) (WT GlyT2 [1]; MβCD-treated oocytes (15 mM, 30 min, 32 °C)) | Inhibition at 1 µM (column head 3 μM, footnote b) (WT GlyT2 [1]; WT GlyT2 in Xenopus laevis oocytes, Table S10) | Inhibition at 3 μM (WT GlyT2 [1]; Control oocytes, 3 µM, Table S7) | IC50 (WT GlyT2 [1]; WT GlyT2 in Xenopus laevis oocytes, glycine EC50 co-applied, Table S10, listed as OLLys) | Recovery at 30 min (WT GlyT2 [2]; MβCD-treated oocytes (15 mM, 30 min, 32°C), listed as OLLys)
1 | CCCCCCCC/C=C\CCCCCCCC(=O)N[C@@H](Cc1c[nH]c2ccccc12)C(=O)O [Oleoyl-L-Tryptophan, oleoyl-L-tryptophan] | 78 ± 4% | 130 nM | does not alter the potency | 76.2 ± 2.3% | 103 nM | No Recovery | No Recovery | No Recovery | No Recovery | No Recovery | No Recovery |  |  |  |  |  | 
2 | CCCCCCCC/C=C\CCCCCCCC(=O)N[C@@H](CC(C)C)C(=O)O [Oleoyl-L-Leucine, oleoyl-L-leucine] | 64.9 ± 3.8% | 619 nM | 2.4 fold | 69.4 ± 3.8% | 262 nM | 2.3 ± 0.5 min |  | 3.1 ± 0.3 min | 92.2 ± 3.7 % | 2.3 ± 0.5 min | 51.1 ± 2.7% | unchanged |  |  |  |  | 
3 | CCCCCCCC/C=C\CCCCCCCC(=O)O[C@H](CC(=O)[O-])C[N+](C)(C)C [Oleoyl-L-Carnitine, oleoyl-L-carnitine] |  | 800 nM | does not alter the potency |  | 520 nM |  | 45.7% |  | 92.4% |  |  |  | 60.5 ± 5.3^b % | 55.5 ± 5.2^b % |  |  | 
4 | CCCCCCCC/C=C\CCCCCCCC(=O)N[C@@H](CCCCN)C(=O)O [Oleoyl-L-Lysine, oleoyl-L-lysine] | 91.5 ± 1.5% | 269 nM | 2.3 fold | 86.6 ± 1.9% | 215 nM |  |  |  | 63.0 ± 4.1% |  | 55.1 ± 1.5% |  |  |  | 93.6 ± 1.9% | 220 nM | no difference was observed
